# Reference: patent publication US9861625B2, “Methods and compositions for treating cancer through inhibition of PI3K” (Duke University, priority 2014, dated 2018)
# Tests used:
# Format in all cases: cell-based
# [1] = tested on: Ly8 cell lines with stable knockdown of PAK1 expression; assay: MTT assay in Ly8 cells with shRNA knockdown of PAK1; details: on average, P<0.01
# Experimental: The 3-(4,5-dimethylthiazol-2-yl)-2,5-diphenyltetrazolium bromide (MTT) cell viability assay was used to determine cell viability in response to drug treatment. Five replicates per concentration tested were carried out in serial dilutions with a total of ten concentrations with a 50% reduction in drug concentration per dilution for each plate. A total of 15 μl of MTT reagent was added to each drug-treated well and incubated for three hours in 37° C. Detergent was added to each drug-treated well and incubated overnight at room temperature without exposure to light. Absorbance was measured at 570 nm using a plate reader from Tecan Group.
# Lentiviral pGIPZ constructs containing either a scrambled sequence (non-silencing; cat. no. RHS4346; Open Biosystems) as control, or a hairpin sequence targeting the PAK1 gene (cat. no. RHS4430; Open Biosystems) were mixed with Lentiviral packaging mix (cat. no. TLP4691; Open Biosystems) and transfected into TLA-HEK-293T cells using Arrest-in as a transfection reagent. Virus was harvested 72 hours post-transfection and frozen at −80° C. until use. DLBCL cell lines were infected with virus in the presence of 8 μg/μl of polybrene, using 1×10^5 cells per well in a 6-well plate. The plates containing cells and virus were spun at 700 g for 90 minutes at room temperature. […] Successful knockdown of PAK1 was confirmed by Western blot and quantitative PCR. […]
# [2] = tested on: Ly8 cells and normal human B cells (tonsil lymphocytes); assay: Toxicity in Ly8 cells compared to normal B cells (alamar blue); details: alone and in combination; 36 hours
# Experimental: BEZ235 was tested in combination with the PAK1 inhibitor IPA-3 using Calcusyn software by applying the Chou-Talalay method. BJAB, HBL1, HBL2, HT, Ly8, and Riva cells were tested, as were normal tonsil lymphocytes. Ly8 and tonsillar lymphocytes were cultured in 96-well plates (approximately 500,000 cells/ml) for 36 hours in Iscove's modified Dulbecco's medium (IMDM) with 20% human AB serum. Viability was assessed with alamar blue dye and normalized to the lowest concentration of BEZ235 in each group.
# Finally, BEZ235 and IPA-3 were administered separately and concurrently to normal human B cells to ascertain a therapeutic window between normal and malignant cells.
# [3] = tested on: 21 established DLBCL cell lines; assay: MTT viability assay of DLBCL cell lines with and without MTOR mutations; details: on average; FIG. 1G
# Experimental: Lymphoma cell lines were cultured with RPMI1640 media supplemented with 10% v/v Fetal Bovine Serum (FBS) and 1% v/v Penicillin/Streptomycin supplied at 10,000 U penicillin and 10 mg streptomycin/ml (BJAB, Farage, Karpas422, Pfieffer, RL, SCI 1, SKI, Toledo, U2932, WSU_NHL, HT), or RPMI1640 supplemented with 15% v/v FBS and 1% v/v P/S (RCK8, SUDH4, SUDHL7), Iscove's modified Dulbecco's medium (IMDM) supplemented with 20% v/v human plasma and 1% P/S ([…]), or alpha-MEM media supplemented with 10% FBS and 1% P/S (TMD8). Cells were grown in a 5% CO2 environment at 37° C.
# The effect the PI3K inhibitor drug BKM120 (Novartis) on lymphoma cell lines was assayed on 96-well format using MTT viability assays. 40,000 cells were grown in drug at 10 concentrations: 25 μM, and nine serial 1:2 dilutions down to 0.05 μM. For each condition tested, there were five technical replicates. Two controls were included: media only and drug-free cells. If the IC50 was not reached within this drug concentration range, the experiment was repeated with an additional drug concentration of […]. […] 100 μl of MTT detergent solution was added, and color was developed in the dark at room temperature overnight, after which 570 nm absorbance was measured. After normalization to control wells, the IC50 values were calculated. […]
Structure (SMILES),sensitivity of the three shRNA-modified cell lines versus unmodified Ly8 cells [1],toxicity in Ly8 cells as compared to normal B cells [2],"sensitivity of cell lines with MTOR mutations (HT, Ly1, SUDHL7) versus the other 18 cell lines [3]"
Cn1c(=O)n(-c2ccc(C(C)(C)C#N)cc2)c2c3cc(-c4cnc5ccccc5c4)ccc3ncc21 [BEZ235],3.5 fold,selective toxicity,
Nc1cc(C(F)(F)F)c(-c2cc(N3CCOCC3)nc(N3CCOCC3)n2)cn1 [BKM120],,,fivefold higher sensitivity
